Reference: patent US6352716B1, “Steroidal liposomes” (The Liposome Company Inc., priority 1984, dated 2002)
In brackets after ≈: the same amount, converted by molar mass. Where two headings read alike, the source gives them in different places.

Columns and labels:
[1] = format: physicochemical; conditions: arsenazo III 4.5 mM, buffer pH 7.3, 50-54 mg salt in 1 ml, MLVs washed three times
Description: (§1) The 2-amino-2-methyl-1,3-propanediol salt of cholesterol hemisuccinate (50 mg) was added to a 1 ml solution of arsenazo III (4.5 mM, final concentration) in 0.01 M 2-amino-2-methyl-1,3-propanediol-HCl (pH 7.3), 0.07 M KCl, 0.07 M NaCl. The suspension of CHS-MLVs was formed by mixing vortically with glass beads. The CHS-MLVs were pelleted by centrifugation at 10,000×g for 15 minutes, and the resulting pellet was washed three times as described in Section 6.1.1.
as §1, with “2-aminoethanol” for “2-amino-2-methyl-1,3-propanediol”, “2-aminoethanol-HCl” for “2-amino-2-methyl-1,3-propanediol-HCl”, “vertically” for “vortically”
The suspension of CHS-MLVs was formed by mixing vertically with glass beads. The CHS-MLVs were pelleted by centrifugation at 10,000×g for 15 minutes, and the resulting pellet was washed three times as described in Section 6.1.1.
as §1, with “triethanolamine” for “2-amino-2-methyl-1,3-propanediol”, “triethanolamine-HCL” for “2-amino-2-methyl-1,3-propanediol-HCl”

[2] = cited from earlier work
[3] = Entrapment of 3H-diazepam in sonicated CHS-SUVs; conditions: Diazepam 5 mg/ml
[4] = format: physicochemical
Description: CHS-MLVs were prepared as described in Section 6.2 using 25 mg tris-salt CHS in 1.0 ml 0.01 M Tris-HCl (pH 7.4), 0.14 M NaCl buffer. The CHS-MLV preparation was sonicated to clarify to form sonicated CHS-SUVs and then either 5, 10, 15, 25, 30 or 166 mg BGH (Eli Lilly & Co., Indianapolis, Ind.) was added to separate aliquots of the sonicated CHS-SUV suspension. The suspensions were extensively mixed vortically, resulting in partitioning of the protein into the CHS-SUV bilayers. The sonicated CHS-SUV suspensions were visually observed for the presence of precipitate at 1, 2, and 21 days.
CHS-MLVs were prepared as described in Section 6.2 using 25 mg tris-salt CHS in 1.0 ml 0.01 M Tris-HCl (pH 7.4), 0.14 M Nacl buffer. The CHS-MLV preparation was sonicated to clarity to form sonicated CHS-SUVs and up to 47 mg zinc-insulin powder (Boving Pancreatic Insulin, Sigma Chemical Co., St. Louis, Mo.) was added to the CHS-SUV suspension. The suspension was extensively mixed vortically, resulting in partitioning of the insulin into the CHS-SUV bilayers. The sonicatd CHS-SUVs were visually observed for the presence of precipitate at 1, 2, and 21 days. […] Insulin entrapment occurs more rapidly at 37° C.
Small unilamellar vesicles were prepared as follows: 100 mg tylosin-base (Eli Lilly & Co., Indianapolis, Ind.) and 200 mg tris-salt CHS were mixed vertically in 4 ml phosphate buffered saline (pH 7.4). […]

[5] = Retention of 125I-human growth hormone in the hind limb after intramuscular injection; design: species or system Swiss-Webster mice; conditions: mouse, in vivo
Description: A group of 12 female Swiss-Webster mice were injected intramuscularly in the hind limb with 0.5 ml of the CHS-MLV entrapped ^125I-HGH suspension. A control group of 12 mice were injected with 0.5 ml free ^125I-HGH in .01 M Tris-HCl, 0.14 M NaCl buffer. Each animal in both groups received approximately 35,000 cpm/animal. At periodic intervals post-injection, the mice were sacrificed, the hind limb dissected, and percent total radioactivity remaining was determined. […] Thus, when injected intramuscularly, the CHS-liposome entrapped drug is released in a sustained fashion.

CC(C)CCC[C@@H](C)[C@H]1CC[C@H]2[C@@H]3CC=C4C[C@@H](OC(=O)CCC(=O)O)CC[C@]4(C)[C@H]3CC[C@]12C.CC(N)(CO)CO [2-amino-2-methyl-1,3-propanediol salt of cholesterol hemisuccinate]
entrapment of arsenazo III (colour of washed pellet) [1]: red in color indicating entrapment of the arsenazo III

CC(C)CCC[C@@H](C)[C@H]1CC[C@H]2[C@@H]3CC=C4C[C@@H](OC(=O)CCC(=O)O)CC[C@]4(C)[C@H]3CC[C@]12C.NCCO [2-aminoethanol salt of cholesterol hemisuccinate]
entrapment of arsenazo III (colour of washed pellet) [1]: red in color indicating entrapment of the arsenazo III

COc1ccc2c(c1)c(CC(=O)O)c(C)n2C(=O)c1ccc(Cl)cc1 [Indomethacin]
solubility in water [2]: practically insoluble in water

CC(C)CCC[C@@H](C)[C@H]1CC[C@H]2[C@@H]3CC=C4C[C@@H](OC(=O)CCC(=O)O)CC[C@]4(C)[C@H]3CC[C@]12C.NC(CO)(CO)CO [Tris-salt CHS, tris(hydroxymethyl)aminomethane salt of cholesteryl hemisuccinate]
entrapment of arsenazo III (colour of washed pellet) [1]: red in color indicating entrapment of the arsenazo III
% 3H-Diazepam Entrapped ([3]; CHS 100 mg/ml): 100%
% 3H-Diazepam Entrapped ([3]; CHS 200 mg/ml): 100%

CC[C@H]1OC(=O)C[C@@H](O)[C@H](C)[C@@H](O[C@@H]2O[C@H](C)[C@@H](O[C@H]3C[C@@](C)(O)[C@@H](O)[C@H](C)O3)[C@H](N(C)C)[C@H]2O)[C@@H](CC=O)C[C@@H](C)C(=O)/C=C/C(C)=C/[C@@H]1CO[C@@H]1O[C@H](C)[C@@H](O)[C@@H](OC)[C@H]1OC [Tylosin, reference compound]
precipitate formation (visual comparison) ([4]; 100 mg tylosin base in 4 ml: CHS-SUV supernatant versus suspension in water): A precipitate formed
solubility in water ([2]; 25° C.): 5000 µg/mL (≈ 5.46 mM)

CC(C)CCCC(C)C1CCC2C3CC=C4CC(OC(=O)CCC(=O)O)CCC4(C)C3CCC12C.OCCN(CCO)CCO (stereo not drawn) [triethanolamine salt of cholesterol hemisuccinate]
entrapment of arsenazo III (colour of washed pellet) [1]: red in color indicating entrapment of the arsenazo III

Zinc-insulin: a polypeptide hormone; zinc-insulin powder, bovine pancreatic insulin from Sigma
solubility in aqueous phases ([2]; pH 4.5): practically insoluble

^125I-HGH: free 125I-labelled human growth hormone in 0.01M Tris-HCl, 0.14M NaCl
% Radioactivity Remaining in Limb ([5]; 3 h): 5%
% Radioactivity Remaining in Limb ([5]; 24 h): 0.7%
% Radioactivity Remaining in Limb ([5]; 72 h): 0.2%
% Radioactivity Remaining in Limb ([5]; 168 h): 0.3%

B1: BGH: a simple protein composed of a single chain of approximately 191 amino acids (protein, UniProt P01246 27-217, looked up)
Somatotropin: AFPAMSLSGLFANAVLRAQHLHQLAADTFKEFERTYIPEGQRYSIQNTQVAFCFSETIPAPTGKNEAQQKSDLELLRISLLLIQSWLGPLQFLSRVFTNSLVFGTSDRVYEKLKDLEEGILALMRELEDGTPRAGQILKQTYDKFDTNMRSDDALLKNYGLLSCFRKDLHKTETYLRVMKCRRFGEASCAF
presence of precipitate at 1, 2, and 21 days ([4]; 5-166 mg BGH added to sonicated CHS-SUVs (25 mg tris-salt CHS in 1.0 ml), room temperature): No precipitate was observed
